The source made the active and inactive calls. The rule behind the calls is not given here.
What was measured:
[1] = Inhibition of bacterial N-terminal His6-tagged VIM2 (27 to 266 residues) expressed in Escherichia coli BL21 DE3 pLysS cells using FC-5 as substrate pretreated for 10 mins followed by substrate addition measured every 60 secs by fluorescence assay; set-up: species or system Bacteria
[2] = Inhibition of bacterial N-terminal His6-tagged NDM1 expressed in Escherichia coli BL21 DE3 pLysS cells using FC-5 as substrate pretreated for 10 mins followed by substrate addition measured every 60 secs by fluorescence assay; set-up: species or system Bacteria
[3] = Inhibition of bacterial N-terminal His6-tagged TEM1 expressed in Escherichia coli BL21 DE3 pLysS cells using FC-5 as substrate pretreated for 10 mins followed by substrate addition measured every 60 secs by fluorescence assay; set-up: species or system Bacteria
[4] = Inhibition of bacterial N-terminal His6-tagged VIM2 (27 to 266 residues) expressed in Escherichia coli BL21 DE3 pLysS cells using FC-5 as substrate pretreated for 10 mins followed by substrate addition by fluorescence assay; set-up: species or system Bacteria
Bacteria [5] = assay: Reversible inhibition of bacterial N-terminal His6-tagged VIM2 (27 to 266 residues) expressed in Escherichia coli BL21 DE3 pLysS cells at 11 uM using FC-5 as substrate pretreated for 30 mins followed by substrate addition by jump-dilution method
Bacteria [6] = assay: Competitive inhibition of bacterial N-terminal His6-tagged VIM2 (27 to 266 residues) expressed in Escherichia coli BL21 DE3 pLysS cells using varying levels of FC-5 as substrate by fluorescence assay
Bacteria [7] = assay: Reversible inhibition of bacterial N-terminal His6-tagged VIM2 (27 to 266 residues) expressed in Escherichia coli BL21 DE3 pLysS cells at 415 uM using FC-5 as substrate pretreated for 30 mins followed by substrate addition by jump-dilution method
[8] = Binding affinity to bacterial N-terminal His6-tagged VIM2 (27 to 266 residues) expressed in Escherichia coli BL21 DE3 pLysS cells by isothermal calorimetric method; set-up: species or system Bacteria
Escherichia coli [9] = assay: Potentiation of meropenem-induced antimicrobial activity against Escherichia coli BL21(DE3) harboring VIM-2 assessed as meropenem MIC at 50 uM measured after 16 to 20 hrs by microdilution broth method (reference value: 16 mg/L); type: functional
Escherichia coli [10] = assay: Potentiation of meropenem-induced antimicrobial activity against Escherichia coli BL21(DE3) harboring VIM-2 assessed as meropenem MIC at 100 uM measured after 16 to 20 hrs by microdilution broth method (reference value: 16 mg/L); type: functional
Escherichia coli [11] = assay: Potentiation of meropenem-induced antimicrobial activity against Escherichia coli BL21(DE3) assessed as meropenem MIC at 100 uM measured after 16 to 20 hrs by microdilution broth method (reference value: <0.125 mg/L); type: functional
Escherichia coli [12] = assay: Potentiation of meropenem-induced antimicrobial activity against Escherichia coli BL21(DE3) assessed as meropenem MIC at 50 uM measured after 16 to 20 hrs by microdilution broth method (reference value: <0.125 mg/L); type: functional
Escherichia coli [13] = assay: Potentiation of meropenem-induced antimicrobial activity against Escherichia coli BL21(DE3) harboring VIM-2 assessed as meropenem MIC at 25 uM measured after 16 to 20 hrs by microdilution broth method (reference value: 16 mg/L); type: functional
Escherichia coli [14] = assay: Potentiation of meropenem-induced antimicrobial activity against Escherichia coli BL21(DE3) assessed as meropenem MIC at 25 uM measured after 16 to 20 hrs by microdilution broth method (reference value: <0.125 mg/L); type: functional
Escherichia coli [15] = assay: Potentiation of meropenem-induced antimicrobial activity against Escherichia coli BL21(DE3) harboring VIM-2 assessed as meropenem MIC at 10 uM measured after 16 to 20 hrs by microdilution broth method (reference value: 16 mg/L); type: functional
Escherichia coli [16] = assay: Potentiation of meropenem-induced antimicrobial activity against Escherichia coli BL21(DE3) assessed as meropenem MIC at 10 uM measured after 16 to 20 hrs by microdilution broth method (reference value: <0.125 mg/L); type: functional

| IC50 [4] [µM] | SMILES | IC50 [1] [µM] | pIC50 [1] | IC50 [2] [µM] | pIC50 [2] | IC50 [3] [µM] | pIC50 [3] | inhibition (Bacteria [5]) | inhibition (Bacteria [6]) | inhibition (Bacteria [7]) | Kd [8] [µM] | MIC (Escherichia coli [9]) [µg/mL] | MIC (Escherichia coli [10]) [µg/mL] | MIC (Escherichia coli [11]) [µg/mL] | MIC (Escherichia coli [12]) [µg/mL] | MIC (Escherichia coli [13]) [µg/mL] | MIC (Escherichia coli [14]) [µg/mL] | MIC (Escherichia coli [15]) [µg/mL] | MIC (Escherichia coli [16]) [µg/mL] |
| --- | --- | --- | --- | --- | --- | --- | --- | --- | --- | --- | --- | --- | --- | --- | --- | --- | --- | --- | --- |
| – | O=C(O)[C@H](O)Cc1ccc(O)c(O)c1 | > 600 | < 3.2 | > 600 | < 3.2 | 189 | 3.72 | – | – | – | – | – | – | – | – | – | – | – | – |
| – | O=C(O)/C=C/c1ccc(O)c(O)c1 [CAFFEIC ACID] | > 600 | < 3.2 | > 600 | < 3.2 | > 600 | < 3.2 | – | – | – | – | – | – | – | – | – | – | – | – |
| 2.47 | C[C@H](CS)C(=O)N1CCC[C@H]1C(=O)O [CAPTOPRIL] | – | – | – | – | – | – | Active | – | – | – | – | – | – | – | – | – | – | – |
| – | O=C(/C=C/c1ccc(O)c(O)c1)O[C@H](Cc1ccc(O)c(O)c1)C(=O)O [ROSMARINIC ACID] | 41.5 | 4.38 | > 600 | < 3.2 | > 600 | < 3.2 | – | Dose-dependent effect | Active | 10.2 | 8 | 8 | < 0.125 | < 0.125 | 16 | < 0.125 | 16 | < 0.125 |
| – | O=C(/C=C/c1ccc(O)c(O)c1/C=C/c1ccc(O)c(O)c1)O[C@H](Cc1ccc(O)c(O)c1)C(=O)O [SALVIANOLIC ACID A] | 27.2 | 4.57 | 160 | 3.75 to 3.79 | 34.3 | 4.46 | – | – | – | – | 4 | 4 | < 0.125 | < 0.125 | 16 | < 0.125 | 16 | < 0.125 |

Source: ChEMBL document CHEMBL4184302 (Bioorg Med Chem Lett, 2018)
